Data on 45 compounds can be found in patent publication US6867207B2, “IL-5 inhibiting 6-azauracil derivatives” (Janssen Pharmaceutica N.V., priority 1997, dated 2005).

Marks after values point to notes of the source that are not given here.

In one test the test system is IL-5 production. The experiment in a line: In vitro inhibition of IL-5 production in human blood (phytohemagglutinin-stimulated whole blood, ELISA). Format: cell-based. Conditions: test dose 1×10^−5 M (values marked *), 48 hours. The essentials: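 Heparinised blood from healthy male donors, diluted threefold in RPMI 1640, preincubated 60 min at 37° C with compound (0.02% DMSO vehicle), then stimulated with 2 μg/mL phytohemagglutinin for 48 h. Supernatant IL-5 measured by ELISA; percentage inhibition at 1×10^−6 M or 1×10^−5 M.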
In general terms: In an ELISA, binding on a coated surface is turned into a signal by an enzyme label.
For `Cn1cnnc1SC(c1ccc(Cl)cc1)c1ccc(-n2ncc(=O)[nH]c2=O)cc1Cl` (racemic) [Compound 53], the “% inh. (percentage inhibition of IL-5 production), marked with *” value was 53* %.

The same test, now with this note: test dose 1×10^−5 M (values marked *), 48 hours, read-out: % inh. (percentage inhibition of IL-5 production), marked with *.
The term inhibition denotes the relative decrease from the control value, in per cent. Turning to `O=c1cnn(-c2ccc(C(NCc3ncc[nH]3)c3ccc(Cl)cc3)c(Cl)c2)c(=O)[nH]1` (racemic) [Compound 50, (±)-2-[3-chloro-4-[(4-chlorophenyl)[(1H-imidazol-2-ylmethyl)amino]methyl]phenyl]-1,2,4-triazine-3,5(2H,4H)-dione], the inhibition at 10 µM is 20%.

Staying with this test, now noted: test dose 1×10^−6 M, 48 hours.
Take `Cc1cc(C)nc(SC(c2ccc(Cl)cc2)c2ccc(-n3ncc(=O)[nH]c3=O)cc2Cl)n1` (racemic) [Compound 66]: the “% inh. (percentage inhibition of IL-5 production)” value came out at 64%.

As to `O=c1cnn(-c2cc(Cl)c(C(Sc3nc4ccccc4o3)c3ccc(Cl)c(C(F)(F)F)c3)c(Cl)c2)c(=O)[nH]1` (stereo not drawn) [Compound 379], the “% inh. (percentage inhibition of IL-5 production)” value was determined as 95%. Still for that read-out and setting: under `CN(C)CCNC(=O)Cc1sc(C(c2ccc(Cl)cc2)c2c(Cl)cc(-n3ncc(=O)[nH]c3=O)cc2Cl)nc1-c1ccccc1` (racemic) [Comp 317] stands 67%.

Turning to `O=c1cnn(-c2cc(Cl)c(C(Sc3nc(-c4ccccc4)cs3)c3ccc(Cl)c(C(F)(F)F)c3)c(Cl)c2)c(=O)[nH]1` (stereo not drawn) [Compound 381], the “% inh. (percentage inhibition of IL-5 production)” value is reported as 95%.

Take `Cc1nc(-c2ccccc2Cl)sc1C(c1ccc(Cl)cc1)c1ccc(-n2ncc(=O)[nH]c2=O)cc1Cl` (racemic) [Compound 154]: the “% inh. (percentage inhibition of IL-5 production)” value was found to be 42%.

For `CCc1sc(C(C)(c2ccc(Cl)c(Cl)c2)c2c(Cl)cc(-n3ncc(=O)[nH]c3=O)cc2Cl)nc1-c1ccccc1` (racemic) [Comp 251], the “% inh. (percentage inhibition of IL-5 production)” value worked out at 90%. On the same count and under the same terms, the result for `Cc1cc(NC(c2ccc(Cl)cc2)c2ccc(-n3ncc(=O)[nH]c3=O)cc2Cl)no1` (racemic) [Compound 40] reads 31%.

Consider `Cc1nnc(SC(c2ccc(Cl)cc2)c2ccc(-n3ncc(=O)[nH]c3=O)cc2Cl)s1` (racemic) [Compound 56], for which the “% inh. (percentage inhibition of IL-5 production)” value stood at 41%. The same measure, in the same setting: under `CCOC(=O)N1CCC(NC(=S)Nc2cccc(-c3nnc(C(c4ccc(Cl)cc4)c4c(Cl)cc(-n5ncc(=O)[nH]c5=O)cc4Cl)o3)c2)CC1` (racemic) [Compound 220] stands 25%; under `CN1CCC(N(C)Cc2sc(C(c3ccc(Cl)cc3)c3c(Cl)cc(-n4ncc(=O)[nH]c4=O)cc3Cl)nc2-c2ccccc2)CC1` (racemic) [Comp 322], 96%. Still for that read-out and setting: the result for `COC(C)c1sc(C(c2ccc(Cl)cc2)c2c(Cl)cc(-n3ncc(=O)[nH]c3=O)cc2Cl)nc1-c1ccccc1` (mixture of isomers) [Comp 315] reads 93%; that for `CN(C)C(=O)CCc1sc(C(c2ccc(Cl)cc2)c2c(Cl)cc(-n3ncc(=O)[nH]c3=O)cc2Cl)nc1-c1ccccc1` (racemic) [Comp 281], 91%. Still for that read-out and setting: the result for `O=c1cnn(-c2cc(Cl)c(C(SC3=NCCS3)c3ccc(Cl)c(C(F)(F)F)c3)c(Cl)c2)c(=O)[nH]1` (stereo not drawn) [Compound 386] reads 97%; that for `COc1cc(-n2ncc(=O)[nH]c2=O)ccc1C(C)(c1ccc(Cl)c(C(F)(F)F)c1)c1nc(-c2ccccc2)cs1` (racemic) [Comp 255], 67%. With `O=c1cnn(-c2cc(Cl)c(C(Sc3nc(-c4ccccc4)cs3)c3ccc(Cl)cc3)c(Cl)c2)c(=O)[nH]1` (stereo not drawn) [Compound 380], the “% inh. (percentage inhibition of IL-5 production)” value came to 95%. Regarding `O=c1cnn(-c2ccc(C(c3ccc(Cl)cc3)c3sc(-c4ccccc4Cl)nc3-c3ccccc3)c(Cl)c2)c(=O)[nH]1` (racemic) [Compound 150], the “% inh. (percentage inhibition of IL-5 production)” value is given as 48%. The same measure, in the same setting: under `O=c1cnn(-c2cc(Cl)c(C(Sc3nccc(-c4ccccc4)n3)c3ccc(Cl)c(C(F)(F)F)c3)c(Cl)c2)c(=O)[nH]1` (racemic) [Compound 342] stands 93%; under `Cn1c(-c2ccccc2)nnc1C(c1ccc(Cl)cc1)c1c(Cl)cc(-n2ncc(=O)[nH]c2=O)cc1Cl.O` (stereo not drawn) [Comp 428], 66%. `O=C(c1sc(C(c2ccc(Cl)cc2)c2c(Cl)cc(-n3ncc(=O)[nH]c3=O)cc2Cl)nc1-c1ccccc1)N1CCOCC1` (racemic) [Comp 306]: the “% inh. (percentage inhibition of IL-5 production)” value stood at 92%.

`CN(C)C(=O)Cc1sc(C(c2ccc(Cl)cc2)c2c(Cl)cc(-n3ncc(=O)[nH]c3=O)cc2Cl)nc1-c1ccccc1` (racemic) [Comp 275]: the “% inh. (percentage inhibition of IL-5 production)” value turned out to be 94%. For the compound `O=c1cnn(-c2cc(Cl)c(C(Sc3ncccn3)c3ccc(Cl)cc3)c(Cl)c2)c(=O)[nH]1` (racemic) [Compound 340], the “% inh. (percentage inhibition of IL-5 production)” value was 88%.

As for `O=c1cnn(-c2cc(Cl)c(C(Sc3nc(-c4ccco4)cs3)c3ccc(Cl)c(C(F)(F)F)c3)c(Cl)c2)c(=O)[nH]1` (racemic) [Compound 399], the “% inh. (percentage inhibition of IL-5 production)” value is on record as 93%.

As for `O=c1cnn(-c2cc(Cl)c(C(c3ccc(Cl)cc3)c3ccccn3)c(Cl)c2)c(=O)[nH]1` (stereo not drawn) [Comp 115], the “% inh. (percentage inhibition of IL-5 production)” value came out at 71%. In the case of `Cc1ccc(-c2nnc(C(c3ccc(Cl)cc3)c3c(Cl)cc(-n4ncc(=O)[nH]c4=O)cc3Cl)o2)cc1` (racemic) [Compound 177], the “% inh. (percentage inhibition of IL-5 production)” value was 69%. Same read-out and setting: under `O=c1cnn(-c2ccc(C(Nc3nccs3)c3ccc(Cl)cc3)c(Cl)c2)c(=O)[nH]1` (racemic) [Compound 44] stands 40%. Turning to `CN(C)CCN(C)C(=O)Cc1sc(C(c2ccc(Cl)cc2)c2c(Cl)cc(-n3ncc(=O)[nH]c3=O)cc2Cl)nc1-c1ccccc1` (racemic) [Comp 335], the “% inh. (percentage inhibition of IL-5 production)” value is 52%. Same read-out and setting: the result for `CN(Cc1ccccc1)Cc1sc(C(c2ccc(Cl)cc2)c2c(Cl)cc(-n3ncc(=O)[nH]c3=O)cc2Cl)nc1-c1ccccc1` (racemic) [Comp 297] reads 90%. The same measure, in the same setting: the result for `CN1CCC(NC(c2ccc(Cl)cc2)c2ccc(-n3ncc(=O)[nH]c3=O)cc2Cl)CC1` (racemic) [Compound 48, (±)-2-[3-chloro-4-[(4-chlorophenyl)[(1-methyl)-4-piperidinyl)amino]methyl]phenyl]-1,2,4-triazine-3,5(2H,4H)-dione] reads 29%.

Consider `Cc1cc(C(c2nc(-c3ccccc3)cs2)c2c(Cl)cc(-n3ncc(=O)[nH]c3=O)cc2Cl)ccc1Cl` (racemic) [Comp 269], for which the “% inh. (percentage inhibition of IL-5 production)” value came out at 90%.

Regarding `NS(=O)(=O)Nc1cccc(-c2nnc(C(c3ccc(Cl)cc3)c3c(Cl)cc(-n4ncc(=O)[nH]c4=O)cc3Cl)o2)c1.O` (racemic) [Compound 221], the “% inh. (percentage inhibition of IL-5 production)” value is −2%. On the same count and under the same terms, the result for `COc1cc(C)nc(NC(c2ccc(Cl)cc2)c2ccc(-n3ncc(=O)[nH]c3=O)cc2Cl)n1` (racemic) [Compound 42] reads 57%; that for `CC(c1ccc(Cl)cc1)(c1nnc(-c2ccccc2)o1)c1ccc(-n2ncc(=O)[nH]c2=O)cc1Cl` (racemic) [Comp 104], 60%.

Regarding `O=c1cnn(-c2cc(Cl)c(C(c3ccc(Cl)cc3)c3nc(-c4cc(Cl)ccc4Cl)cs3)c(Cl)c2)c(=O)[nH]1` (racemic) [Comp 257], the “% inh. (percentage inhibition of IL-5 production)” value came out at 82%. The same measure, in the same setting: the result for `O=C(c1ccccc1)c1sc(C(c2ccc(Cl)cc2)c2c(Cl)cc(-n3ncc(=O)[nH]c3=O)cc2Cl)nc1-c1ccccc1` (racemic) [Comp 273] reads 77%; that for `Cn1ccnc1SC(c1ccc(Cl)cc1)c1ccc(-n2ncc(=O)[nH]c2=O)cc1Cl` (racemic) [Compound 58], 5%. For `O=c1cnn(-c2cc(Cl)c(C(c3ccc(Cl)cc3)c3nnc(COc4ccccc4Cl)o3)c(Cl)c2)c(=O)[nH]1` (racemic) [Compound 175], the “% inh. (percentage inhibition of IL-5 production)” value is given as 58%. Still for that read-out and setting: under `Cc1sc(-c2cccc(F)c2)nc1C(c1ccc(Cl)cc1)c1c(Cl)cc(-n2ncc(=O)[nH]c2=O)cc1Cl` (racemic) [Compound 370] stands 76%; under `O=c1cnn(-c2cc(Cl)c(C(c3ccc(Cl)cc3)c3sc(-c4ccccc4)nc3-c3ccccc3Cl)c(Cl)c2)c(=O)[nH]1` (racemic) [Compound 145], 37%; under `Cc1ccccc1-c1nc(C(c2ccc(Cl)cc2)c2c(Cl)cc(-n3ncc(=O)[nH]c3=O)cc2Cl)cs1` (racemic) [Compound 374], 94%. Turning to `Cc1nc(-c2cccc(F)c2)c(C(c2ccc(Cl)cc2)c2ccc(-n3ncc(=O)[nH]c3=O)cc2Cl)s1` (racemic) [Compound 143], the “% inh. (percentage inhibition of IL-5 production)” value is on record as 81%.

Still in this test, the particulars now being: test dose 1×10^−6 M, 48 hours, read-out: % inh. (percentage inhibition of IL-5 production).
As for `O=c1cnn(-c2cc(Cl)c(C(Sc3[nH]c(=S)[nH]c3-c3ccccc3)c3ccc(Cl)c(C(F)(F)F)c3)c(Cl)c2)c(=O)[nH]1` (racemic) [Compound 400, (±)-2-[3,5-dichloro-4-[[4-chloro-3-(trifluoromethyl)phenyl][(2,3-dihydro-5-phenyl-2-thioxo-1H-imidazol-4-yl)thio]-methyl]phenyl]-1,2,4-triazine-3,5(2H,4H)-dione], the inhibition at 1 µM was determined as 76%. For `O=c1cnn(-c2cc(Cl)c(C(CO)c3ccc(Cl)cc3)c(Cl)c2)c(=O)[nH]1` (racemic) [Compound 420, (±)-2-[3,5-dichloro-4-[1-(4-chlorophenyl)-2-hydroxyethyl]phenyl]-1,2,4-triazine-3,5(2H,4H)-dione], the inhibition at 1 µM is 33%. Take `Cn1ccnc1C(c1ccc(Cl)cc1)c1ccc(-n2ncc(=O)[nH]c2=O)cc1Cl` (racemic) [Compound 123, (±)-2-[3-chloro-4-[(4-chlorophenyl)(1-methyl-1H-imidazol-2-yl)methyl]phenyl]-1,2,4-triazine-3,5(2H,4H)-dione]: the inhibition at 1 µM stood at 13%.
